Assay results from patent publication US11351178B2, “Selective HDAC6 inhibitors” (ITALFARMACO S.P.A., priority 2017, dated 2022).

How the values were obtained:
recombinant human HDAC6 = molecular target: T1, recombinant human HDAC6 (Homo sapiens, UniProt Q9UBN7); assay: Enzymatic screening on recombinant human HDAC6; format: biochemical; details: Table 2; read-out: HDAC6 IC50
T1 sequence (Q9UBN7 1-1215): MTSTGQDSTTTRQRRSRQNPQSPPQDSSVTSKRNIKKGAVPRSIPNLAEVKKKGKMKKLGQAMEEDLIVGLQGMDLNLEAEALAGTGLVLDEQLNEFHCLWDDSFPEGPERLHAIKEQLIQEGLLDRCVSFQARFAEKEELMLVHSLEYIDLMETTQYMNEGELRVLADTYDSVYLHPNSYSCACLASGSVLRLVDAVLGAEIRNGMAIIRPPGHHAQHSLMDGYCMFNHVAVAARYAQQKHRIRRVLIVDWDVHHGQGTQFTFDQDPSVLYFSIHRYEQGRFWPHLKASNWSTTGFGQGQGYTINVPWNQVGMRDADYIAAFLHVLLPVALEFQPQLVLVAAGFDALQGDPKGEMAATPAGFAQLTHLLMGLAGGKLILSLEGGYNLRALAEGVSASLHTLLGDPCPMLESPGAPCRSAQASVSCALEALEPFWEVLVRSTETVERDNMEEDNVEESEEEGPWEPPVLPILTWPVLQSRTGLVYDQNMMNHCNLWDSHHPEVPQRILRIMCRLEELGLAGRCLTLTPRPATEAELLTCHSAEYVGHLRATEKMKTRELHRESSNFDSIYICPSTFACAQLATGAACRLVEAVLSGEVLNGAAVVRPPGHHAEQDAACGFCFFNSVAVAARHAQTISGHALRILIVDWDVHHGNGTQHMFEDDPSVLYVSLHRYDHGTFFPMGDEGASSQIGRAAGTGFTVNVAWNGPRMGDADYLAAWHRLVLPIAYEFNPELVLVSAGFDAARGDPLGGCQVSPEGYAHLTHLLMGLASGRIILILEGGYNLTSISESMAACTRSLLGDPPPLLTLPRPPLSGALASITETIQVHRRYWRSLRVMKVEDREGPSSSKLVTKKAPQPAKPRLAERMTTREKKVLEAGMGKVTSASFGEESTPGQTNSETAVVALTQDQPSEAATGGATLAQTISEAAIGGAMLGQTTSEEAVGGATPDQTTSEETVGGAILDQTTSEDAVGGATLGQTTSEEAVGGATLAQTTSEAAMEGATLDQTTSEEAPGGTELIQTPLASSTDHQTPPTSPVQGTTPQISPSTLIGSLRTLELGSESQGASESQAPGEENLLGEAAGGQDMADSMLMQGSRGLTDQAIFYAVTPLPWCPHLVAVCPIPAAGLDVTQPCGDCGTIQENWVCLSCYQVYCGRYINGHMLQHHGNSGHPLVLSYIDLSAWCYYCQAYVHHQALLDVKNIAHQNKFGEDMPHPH
Description: Enzymatic activity on recombinant human HDAC6 and HDAC3 was evaluated (Table 2) for each synthesized compound.
After a period of incubation at 30° C. (incubation times vary for different isoforms and are shown in table 1) 25 μL of solution containing the substrate were added. As substrate, FLUOR DE LYS® deacetylase substrate (Enzo Life Sciences, cat #BML-K1104, FdL), FLUOR DE LYS®-Green substrate (Enzo Life Sciences, cat #BML-K1572 FdL_G) and trifluoroacetyl-L-lysine (Tfal)-2× concentrated solution in 25 mM Tris-HCl, pH 8, 130 mM NaCl 0.05% Tween-20 10% glycerol) were used. Following a reaction period at 30° C.

[1] = Stability to Phase I metabolism in rat S9 liver fraction; format: in vitro ADME; details: after 90 min, 37° C.
Description: Test compounds were incubated in rat and human liver S9 fraction at 37° C. up to 90 minutes in order to evaluate their stability to Phase I metabolism by hepatic enzymes. […] The reaction was stopped placing samples on ice bath and adding acidified acetonitrile. After centrifugation (10 minutes at 14000 rpm) an aliquot of the supernatant was diluted water, filtered with 0.45 μm regenerated cellulose syringe filters and injected in HPLC-UV or in LC-MS/MS. The percentages of the amount remaining at the various incubation times with respect to the initial amount were calculated. The intrinsic clearance was also calculated.

Stability in rat plasma = format: in vitro ADME; details: after 4 hours, 37° C.
Description: In order to evaluate the stability to circulating enzymes, test compounds were incubated in human and rat plasma at 37° C. in a thermostated oscillating bath. Each test compound was incubated at μM (50 μM when the samples were analysed by UV/HPLC, 1 or 2 μM when the samples were analysed by LC-MS/MS) concentration for 0, 15, 30 min and 1, 2 and 4 hours. The reaction was stopped placing tubes on ice bath and adding acidified acetonitrile. After centrifugation for 10 minutes at 14000 rpm, an aliquot of the supernatant was diluted with water, filtered with 0.45 μm syringe filters and injected in HPLC-UV or in LC-MS/MS. The percentages of amount remaining at the various times of incubation with respect to initial amount were calculated. The half-life in plasma was also calculated.

| SMILES | IC50 (recombinant human HDAC6) [nM] | residual percentage in rat S9 fraction [1] [%] | residual percentage in rat plasma (Stability in rat plasma) [%] |
| --- | --- | --- | --- |
| O=C(NO)c1ccc(Sc2nnc(-c3ccc(F)cc3)[nH]2)cc1 [comp. 29, 4-[[5-(4-fluorophenyl)-4H-1,2,4-triazol-3-yl]sulfanyl]benzenecarbohydroxamic acid] | 19 | 74 | 103 |
| CCn1c(Sc2ccc(C(=O)NO)cc2)nnc1-c1ccc(F)cc1 [comp. 30, 4-[[4-ethyl-5-(4-fluorophenyl)-1,2,4-triazol-3-yl]sulfanyl]benzenecarbohydroxamic acid] | 25 | 63 | 49 |
| O=C(NO)c1ccc(Cn2nnc(-c3ccc(Cl)cc3)n2)cc1 [comp. 31, 4-[[5-(4-chlorophenyl)tetrazol-2-yl]methyl]benzenecarbohydroxamic acid] | 14 | 0 | 76 |
| O=C(NO)c1ccc(Cn2nnc(Cc3ccccc3)n2)cc1 [comp. 36, 4-[(5-benzyltetrazol-2-yl)methyl]benzenecarbohydroxamic acid] | 52 | 38 | 60 |
| O=C(NO)c1ccc(Cn2nnnc2Cc2ccccc2)cc1 [comp. 37, 4-[(5-benzyltetrazol-1-yl)methyl]benzenecarbohydroxamic acid] | 212 | 82 | 6 |
| Cc1ccsc1-c1nnn(Cc2ccc(C(=O)NO)cc2)n1 [comp. 39, 4-[[5-(3-methyl-2-thienyl)tetrazol-2-yl]methyl]benzenecarbohydroxamic acid] | 3 | 0 | 63 |
| COc1ccc(Cc2nc(Cc3ccc(C(=O)NO)cc3)n(-c3ccc(C(F)(F)F)cc3)n2)cc1OC [comp. 44, 4-[[5-[(3,4-dimethoxyphenyl)methyl]-2-[4-(trifluoromethyl)phenyl]-1,2,4-triazol-3-yl]methyl]benzenecarbohydroxamic acid] | 415 | 87 | 32 |
| COc1ccc(Cc2nnc(Cc3ccc(C(=O)NO)cc3)o2)cc1OC [comp. 45, 4-[[5-[(3,4-dimethoxyphenyl)methyl]-1,3,4-oxadiazol-2-yl]methyl]benzenecarbohydroxamic acid] | 68 | 69 | 81 |
| COc1ccc(-c2nc(Cc3ccc(C(=O)NO)cc3)no2)cc1OC [comp. 49, 4-[[5-(3,4-dimethoxyphenyl)-1,2,4-oxadiazol-3-yl]methyl]benzenecarbohydroxamic acid] | 7 | 57 | 82 |
| COc1ccc(-c2nnc(Cc3ccc(C(=O)NO)cc3)o2)cc1OC [comp. 57, 4-[[5-(3,4-dimethoxyphenyl)-1,3,4-oxadiazol-2-yl]methyl]benzenecarbohydroxamic acid] | 8 | 71 | 94 |
| Cc1nc(Sc2ccc(C(=O)NO)cc2)nn1-c1ccc(Cl)cc1Cl [comp. 62, 4-[[1-(2,4-dichlorophenyl)-5-methyl-1,2,4-triazol-3-yl]sulfanyl]benzenecarbohydroxamic acid] | 127 | 55 | 83 |
| Cc1ccc(-c2cc(-c3nnc(Sc4ccc(C(=O)NO)cc4)n3C)c3ccccc3n2)cc1 [comp. 67, 4-[[4-methyl-5-[2-(p-tolyl)-4-quinolyl]-1,2,4-triazol-3-yl]sulfanyl]benzenecarbohydroxamic acid] | 70 | 44 | 101 |
| O=C(NO)c1ccc(Cc2nnc(-c3ccccc3)o2)cc1 [comp. 68, 4-[(5-phenyl-1,3,4-oxadiazol-2-yl)methyl]benzenecarbohydroxamic acid] | 4 | 34 | 77 |
| COc1ccc(-c2nnn(Cc3ccc(C(=O)NO)cc3)n2)cc1OCc1ccccc1 [comp. 70, 4-[[5-(3-benzyloxy-4-methoxy-phenyl)tetrazol-2-yl]methyl]benzenecarbohydroxamic acid] | 9 | 18 | 79 |
| COc1ccc(-c2nnnn2Cc2ccc(C(=O)NO)cc2)cc1OCc1ccccc1 [comp. 71, 4-[[5-(3-benzyloxy-4-methoxy-phenyl)tetrazol-1-yl]methyl]benzenecarbohydroxamic acid] | 52 | 58 | 4 |
| Cn1c(Sc2ccc(C(=O)NO)cc2)nnc1C1COc2ccccc2O1 (stereo not drawn) [comp. 83, 4-[[5-(2,3-dihydro-1,4-benzodioxin-3-yl)-4-methyl-1,2,4-triazol-3-yl]sulfanyl]benzenecarbohydroxamic acid] | 22 | 92 | 76 |
| O=C(NO)c1ccc(Cn2nnc(-c3ccccn3)n2)cc1 [comp. 89, 4-[[5-(2-pyridyl)tetrazol-2-yl]methyl]benzenecarbohydroxamic acid] | 9 | 97 | 70 |
| O=C(NO)c1cc(F)c(Cn2nnc(-c3ccc4ccccc4n3)n2)c(F)c1 [comp. 95, 3,5-difluoro-4-[[5-(2-quinolyl)tetrazol-2-yl]methyl]benzenecarbohydroxamic acid] | 10 | 41 | 75 |
| O=C(NO)c1cc(F)c(Cn2nnnc2-c2ccc3ccccc3n2)c(F)c1 [comp. 96, 3,5-difluoro-4-[[5-(2-quinolyl)tetrazol-1-yl]methyl]benzenecarbohydroxamic acid] | 7 | 41 | 99 |
| Cn1c(Sc2c(F)cc(C(=O)NO)cc2F)nnc1-c1sc2ncccc2c1N [comp. 99, 4-[[5-(3-aminothieno[2,3-b]pyridin-2-yl)-4-methyl-1,2,4-triazol-3-yl]sulfanyl]-3,5-difluoro-benzenecarbohydroxamic acid] | 7 | 108 | 91 |
| Cn1c(Sc2c(F)cc(C(=O)NO)cc2F)nnc1C1(c2ccccc2)CCC1 [comp. 101, 3,5-difluoro-4-[[4-methyl-5-(1-phenylcyclobutyl)-1,2,4-triazol-3-yl]sulfanyl]benzenecarbohydroxamic acid] | 18 | 9 | 73 |
